Type: physicochemical
Method: In forming the dressing shown in FIGS. 19A and 19B, the gel may be heat cured (e.g., at between 30-40° C. for between 1-4 hours, e.g., 2 hours at 35° C.). As will be described in more detail below, a very high salt (e.g., MgCl2), such as between 5% and 50% (weight of salt to weight of gel total) may be added to the hydrogel. For example 10% MgCl2 may be used which may help keep the coal tar globules or clusters from dissolving into the gel. […] In the context of the dressings described herein, a decrease in U.V. transmittance may require a longer treatment time (given that power output from the light cannot be increased) or may make treatment with the dressing impossible or impractical. […] Typically the greater the percentage of MgCl2 the better the effect. However, 5% or more may be sufficient; if longer shelf life for the dressings (e.g., beyond one week, two weeks, three weeks, on month, two months, three months, six months, 1 year, etc.) is desired higher MgCl2 percentages (e.g., 7.5%, 10%, or more) may be used.

Row | Molecule | effect of additive on coal tar solubility in hydrogel | solubility of coal tar
1 | [Cl-].[Cl-].[Mg+2] [MgCl2] | lower coal tar solubility | 
2 | OC[C@@H](O)[C@@H](O)[C@H](O)[C@@H](O)CO [Sorbitol, sorbitol] | increased solubility of coal tar in water | 
3 | coal tar |  | low solubility

Source: patent publication US20190240502A1, “METHODS, COMPOSITIONS AND APPARATUSES FOR TREATING PSORIASIS BY PHOTOTHERAPY” (Luma Therapeutics, Inc., priority 2016, published 2019)
